Measurements reported in patent US20230141783A1, “DIFFERENT FORMS OF 6-CHLORO-2-ETHYL-N-(4-(4-(4-(TRIFLUOROMETHOXY)PHENYL)PIPERIDINE-1-YL)BENZYL)IMIDAZO[1,2-A]PYRIDINE-3-CARBOXAMIDE” (priority 2019, published 2023).
Converted amounts (≈) assume the structure as drawn. “Also recorded” adds a separate entry of the source. Like-named read-outs stand apart in the source and are kept apart here.

Experiments:
[1] = Forms A and C re-slurry in pure solvents at RT (aging experiments, XRPD); type: physicochemical; conditions: re-slurry of Forms A and C at RT; except in methanol
Description: These experiments were performed to investigate potential transformation between Form A and C. The procedure of the experiments is shown below. • 15 mg Form A and 15 mg Form C were add into a 1.5 ml vial with magnetic stirrer. • 20 vol (600 ul) of various solvents was added into the vial • The suspensions were stir at RT for 5 days • Then filter and the solid was sent for XRPD (before and after drying in oven) and DSC

DVS water absorption = type: physicochemical; conditions: 90% RH at RT; ditosylate
Source text: (FIGS. 4-5). It is the predominant form obtained in slurry experiments. Conversion from Form A to other XRPD patterns was mainly obtained from methanol (to Form C) or water (to pattern B) in the slurry medium. However, as it will be shown in further sections, Form C is converted to Form A upon re-slurry in the majority of other solvents (than methanol).
FIGS. 9 to 11 show XRPD, DSC, and TGA of a solid with Form C. […] The XRPD peaks of pattern C are sharper than those of Form A. Form C is the predominant form when methanol is used as the slurry medium. However, Form “C” is not a methanol solvate form of the di-tosylate salt. Many reactive crystallization experiments using different solvents generated Form C immediately after salt formation.

[2] = Long-term stability at 25° C./60% RH (HPLC); type: physicochemical; conditions: for Purity [%] (as measured by HPLC): 25° C./60% RH
[3] = Exposing Forms A and C in 100% RH at RT (XRPD/DSC); type: physicochemical; conditions: 100% RH at RT for 6 days, ditosylate
Source text: Forms A and C were exposed in 100% RH environment at RT for 6 days; the solids were subsequently analyzed using DSC and XRPD.
In FIGS. 1 and 17, the XRPD of sample of Form A (previous obtained form EA and IPA/MEK) before and after 6 days exposure to 100% RH are sketched. FIGS. 19 and 20 show the DSC scan of the same samples after exposure. […] FIGS. 18 and 21 show the result of the same treatment for Form C.

[4] = Stability under accelerated conditions 40° C./75% RH (HPLC); type: physicochemical; conditions: 40° C./75% RH, 6 months
physchem [5] = conditions: thermodynamic from solid
Description: Approximate solubility of the starting di-tosylate salt (Form A) was measured by gravimetry method. 100 mg of the solid was suspended in 10 vol of various solvents and stirred at RT and 50° C. for 3 days. The mother liquid was then used to measure the solubility.

cytochrome bc1 = cytochrome bc1 (Mycobacterium tuberculosis, UniProt P9WP37); conditions: Pethe et al., Nature Medicine, 19, 1157-1160 (2013); inhibiting cytochrome bc1 activity; cited from earlier work
Chain of cytochrome bc1 (P9WP37 whole entry, looked up): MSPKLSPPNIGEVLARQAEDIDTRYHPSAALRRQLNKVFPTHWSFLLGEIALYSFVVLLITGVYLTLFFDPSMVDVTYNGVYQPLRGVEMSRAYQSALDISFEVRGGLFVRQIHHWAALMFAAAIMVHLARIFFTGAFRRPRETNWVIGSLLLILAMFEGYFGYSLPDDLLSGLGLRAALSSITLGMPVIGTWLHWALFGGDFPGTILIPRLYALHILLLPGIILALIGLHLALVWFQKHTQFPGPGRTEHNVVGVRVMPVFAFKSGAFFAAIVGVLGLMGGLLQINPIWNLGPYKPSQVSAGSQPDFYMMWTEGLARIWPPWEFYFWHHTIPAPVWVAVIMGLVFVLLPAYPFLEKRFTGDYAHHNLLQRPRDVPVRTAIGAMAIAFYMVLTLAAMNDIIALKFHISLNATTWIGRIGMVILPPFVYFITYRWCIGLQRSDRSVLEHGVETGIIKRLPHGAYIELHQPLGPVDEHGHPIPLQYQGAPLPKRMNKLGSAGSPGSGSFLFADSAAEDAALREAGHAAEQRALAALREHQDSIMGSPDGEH

[6] = Approximate solubility of the free base by gravimetry method; type: physicochemical; conditions: organic solvent or mixture, thermodynamic from solid
Description: The objective of measuring solubility of free base was to identify potential solvents for salt formation process development. Approximate solubility of the free base was measured by gravimetry method. Excess solids were added to various solvents including some Class III solvents (ICH guideline) at RT and 50° C. Since the solubility in these solvents is generally low, it was decided to mix water with these solvents. The suspensions were slurried for one day; the clear liquors from the top portion of the suspension were used for solubility determination by gravimetry method.

[7] = pKa analysis (UV-metric titration); type: physicochemical; conditions: methanol-water co-solvent, aqueous values by Yasuda-Shedlovsky extrapolation, 25.0-25.1 °C, 0.15 M KCl
Description: The sample pKas were determined using the spectrometric (UV-metric) technique. The sample was titrated in a UV-metric triple titration from pH 2.0-12.0 at concentrations of 31 -23 µM, under methanol-water co-solvent conditions (the methanol mixing ratio varied from 63.9 to 46.7% w/w).
It should be noted that an additional potentiometric assay was carried out which confirmed the pKas and that there were no further pKas associated with the sample within the measurable pH range (2.0-12.0).

[8] = Solubility estimation by aliquot addition and Clarity temperature cycling; conditions: for solubility: 20 °C, organic solvent or mixture, thermodynamic from solid
physchem [9] = conditions: pH 1, simulated gastric fluid, thermodynamic from solid
[10] = mono-tosylate

CCc1nc2ccc(Cl)cn2c1C(=O)NCc1ccc(N2CCC(c3ccc(OC(F)(F)F)cc3)CC2)cc1.Cc1ccc(S(=O)(=O)O)cc1.Cc1ccc(S(=O)(=O)O)cc1 [Form A, 6-chloro-2-ethyl-N-(4-(4-(4-(trifluoromethoxy)phenyl)piperidine-1-yl)benzyl)imidazo[1,2-a]pyridine-3-carboxamide ditosylate]
relative polymorph stability [1]: more stable than Form C | water absorption (DVS) (DVS water absorption): around 0.35% | long-term storage stability ([2]; 25° C. and 60% RH for up to 60 months, listed as Q203-ditosylate form A, ditosylate): remains stable | Purity [%] (as measured by HPLC) ([2]; 0 months): >98% | Purity [%] (as measured by HPLC) ([2]; 6 months): >98% | Purity [%] (as measured by HPLC) ([2]; 12 months): >98% | Purity [%] (as measured by HPLC) ([2]; 24 months): >98% | Purity [%] (as measured by HPLC) ([2]; 36 months): >98% | Purity [%] (as measured by HPLC) ([2]; 48 months): >98% | Purity [%] (as measured by HPLC) ([2]; 60 months): >98% | crystalline form after exposure to 100% RH [3]: maintains its crystalline form; also recorded: no change to crystalline | Approximate solubility (Acetone, 50° C.): nil | Approximate solubility (Acetone, RT): nil | Approximate solubility (Acetonitrile, 50° C.): nil | Approximate solubility (Acetonitrile, RT): nil | Approximate solubility (Dichloromethane (DCM), 50° C.): nil | Approximate solubility (Dichloromethane (DCM), RT): nil | Approximate solubility (EA, 50° C.): nil | Approximate solubility (EA, RT): nil | Approximate solubility (IPA, RT): nil | Approximate solubility (IPAC, 50° C.): nil | Approximate solubility (IPAC, RT): nil | Approximate solubility (MA, 50° C.): nil | Approximate solubility (MA, RT): nil | Approximate solubility (Methul Isobutyl Ketone (MIBK), RT): nil | Approximate solubility (Methyl Ethyl Ketone (MEK), 50° C.): nil | Approximate solubility (Methyl Ethyl Ketone (MEK), RT): nil | Approximate solubility (Methyl tert-Butyl Ether (TBME), 50° C.): nil | Approximate solubility (Methyl tert-Butyl Ether (TBME), RT): nil | Approximate solubility (THF, 50° C.): nil | Approximate solubility (THF, RT): nil | Approximate solubility (Water, RT): nil | purity (HPLC) [4]: > 98% | solubility at 3 days (physchem [5]; IPA, 50 °C, organic solvent or mixture): 3 mg/mL | solubility at 3 days (physchem [5]; ethanol (EtOH), 50 °C, organic solvent or mixture): 7 mg/mL | solubility at 3 days (physchem [5]; ethanol (EtOH), organic solvent or mixture): 1 mg/mL | solubility at 3 days (physchem [5]; methanol (MeOH), 50 °C, organic solvent or mixture): 275 mg/mL | solubility at 3 days (physchem [5]; methanol (MeOH), organic solvent or mixture): 126 mg/mL | solubility at 3 days (physchem [5]; methyl isobutyl ketone (MIBK), 50 °C, organic solvent or mixture): 2 mg/mL | solubility at 3 days (physchem [5]; toluene, 50 °C, organic solvent or mixture): 3 mg/mL | solubility at 3 days (physchem [5]; toluene, organic solvent or mixture): 1 mg/mL | solubility at 3 days (physchem [5]; water, 50 °C): 3 mg/mL

CCc1nc2ccc(Cl)cn2c1C(=O)NCc1ccc(N2CCC(c3ccc(OC(F)(F)F)cc3)CC2)cc1 [Q203 free base, 6-chloro-2-ethyl-N-(4-(4-(4-(trifluoromethoxy)phenyl)piperidine-1-yl)benzyl)imidazo[1,2-a]pyridine-3-carboxamide]
activity against tuberculosis (cytochrome bc1): active against tuberculosis | solubility at 1 day ([6]; Acetone+5%water, 50° C.): 74 mg/mL (≈ 133 mM) | solubility at 1 day ([6]; Acetone+5%water, RT): 22 mg/mL (≈ 39.5 mM) | solubility at 1 day ([6]; Acetone+10%water, 50° C.): 42 mg/mL (≈ 75.4 mM) | solubility at 1 day ([6]; Acetone, 50° C.): 48 mg/mL (≈ 86.2 mM) | solubility at 1 day ([6]; EA and its mixture with water, 50° C.): 55 to 98 mg/mL (≈ 98.7 to 176 mM) | solubility at 1 day ([6]; EA+4%water, 50° C.): 55 mg/mL (≈ 98.7 mM) | solubility at 1 day ([6]; EA+4%water, RT): 16 mg/mL (≈ 28.7 mM) | solubility at 1 day ([6]; Ethyl Acetate (EA), 50° C.): 99 mg/mL (≈ 178 mM) | solubility at 1 day ([6]; Ethyl Acetate (EA), RT): 13 mg/mL (≈ 23.3 mM) | solubility at 1 day ([6]; IPA or its mixture with water, 50° C.): 11 to 22 mg/mL (≈ 19.7 to 39.5 mM) | solubility at 1 day ([6]; IPA+5%water, 50° C.): 22 mg/mL (≈ 39.5 mM) | solubility at 1 day ([6]; IPA+15%water, 50° C.): 11 mg/mL (≈ 19.7 mM) | solubility at 1 day ([6]; IPAC+4%water, 50° C.): 35 mg/mL (≈ 62.8 mM) | solubility at 1 day ([6]; Isopropyl Acetate (IPAC), 50° C.): 51 mg/mL (≈ 91.6 mM) | solubility at 1 day ([6]; Isopropyl Acetate (IPAC), RT): 26 mg/mL (≈ 46.7 mM) | solubility at 1 day ([6]; Isopropyl Alcohol (IPA), 50° C.): 20 mg/mL (≈ 35.9 mM) | solubility at 1 day ([6]; MA+4%water, 50° C.): 105 mg/mL (≈ 189 mM) | solubility at 1 day ([6]; MA+4%water, RT): 18 mg/mL (≈ 32.3 mM) | solubility at 1 day ([6]; Methyl Amine (MA), 50° C.): 94 mg/mL (≈ 169 mM) | solubility at 1 day ([6]; Methyl Amine (MA), RT): 38 mg/mL (≈ 68.2 mM) | solubility at 1 day ([6]; Tetrahydrofuran (THF), 50° C.): 279 mg/mL (≈ 501 mM) | solubility at 1 day ([6]; Tetrahydrofuran (THF), RT): 133 mg/mL (≈ 239 mM) | solubility at 1 day ([6]; acetone and its mixture with water, 50° C.): 41 to 74 mg/mL (≈ 73.6 to 133 mM) | solubility at 1 day ([6]; methyl acetate, 50° C.): 94 to 105 mg/mL (≈ 169 to 189 mM) | pKa [7]: 3.7 ± 0.06 | Tcryst ([8]; IPA): 37.0-39.3 °C | Tdisso ([8]; IPA): 52.5-55.7 °C | solubility ([8]; IPA): < 25.3 mg/mL | Tcryst ([8]; MEK): not observed | Tdisso ([8]; MEK): ambient | solubility ([8]; MEK): 50 to 56 mg/mL (≈ 89.8 to 101 mM) | Tcryst ([8]; acetone): *not observed | solubility ([8]; acetone): < 25.4 mg/mL | Tdisso ([8]; acetone, partial solubility when heated, solid remained after two Clarity heat/cool cycles): *35 °C | Tcryst ([8]; acetonitrile): 47.4-47.9 °C | Tdisso ([8]; acetonitrile): 58.2-58.9 °C | solubility ([8]; acetonitrile): < 25 mg/mL | Tcryst ([8]; dichloromethane): not observed | Tdisso ([8]; dichloromethane): ambient | solubility ([8]; dichloromethane): 169 to 253 mg/mL (≈ 303 to 454 mM) | Tcryst ([8]; dimethyl sulfoxide): 32.8-39.3 °C | Tdisso ([8]; dimethyl sulfoxide): 53.6-54.7 °C | solubility ([8]; dimethyl sulfoxide): < 25.5 mg/mL | Tcryst ([8]; ethyl acetate): not observed | Tdisso ([8]; ethyl acetate): ambient | solubility ([8]; ethyl acetate): 34 to 36 mg/mL (≈ 61 to 64.6 mM) | Tcryst ([8]; methanol): 25.3-26.6 °C | Tdisso ([8]; methanol): 45.6-47.1 °C | solubility ([8]; methanol): < 25 mg/mL | Tcryst ([8]; methyl tert-butyl ether): not observed | Tdisso ([8]; methyl tert-butyl ether): not observed | solubility ([8]; methyl tert-butyl ether): < 25.6 mg/mL | Tcryst ([8]; tetrahydrofuran): not observed | Tdisso ([8]; tetrahydrofuran): ambient | solubility ([8]; tetrahydrofuran): 128 to 255 mg/mL (≈ 230 to 458 mM)

CCc1nc2ccc(Cl)cn2c1C(=O)NCc1ccc(N2CCC(c3ccc(OC(F)(F)F)cc3)CC2)cc1.Cc1ccc(S(=O)(=O)O)cc1 [pTSA salt, 6-chloro-2-ethyl-N-(4-(4-(4-(trifluoromethoxy)phenyl)piperidine-1-yl)benzyl)imidazo[1,2-a]pyridine-3-carboxamide mono-tosylate]
solubility (physchem [9]): ~0.33 mg/mL | solid form after slurrying in buffer (XRPD) ([10]; pH 1 buffer, listed as pTSA): remained the same pattern | solid form after slurrying in buffer (XRPD) ([10]; pH 1 buffer): remained stable | solid form after slurrying in buffer (XRPD) ([10]; pH 4.5 and above): converted to freebase (type 28)
